This note sets out measurements from patent US7825146B2, “Sulfonamide derivative having isoxazole ring” (Shionogi & Co., Ltd., priority 2003, dated 2010).

For one series, the target named is T1, MMP-9 (Homo sapiens, UniProt P14780).
T1 construct: made in house; host or cells: endogenous secretion from human fibrosarcoma HT1080 cells (TPA-stimulated), purified from conditioned medium
In words: Assay for inhibitory activities on MMPs (fluorogenic MOCAc peptide substrate): MMP-9. The class given is biochemical. Particulars: from HT1080 cells, activated by TPCK-Trypsin. The source says: MMP-9 was isolated and purified by procedures described in as follows: Yasunori Okada, Yukio Gonoji, Katsumi Naka, Katsuro Tomita, Isao Nakanishi, Kazushi Iwata, Kyoko Yamashita, and Taro Hayakawa: Matrix metalloproteinase 9 (92-kDa gelatinase/type IV collagenase) from HT1080 human fibrosarcoma cells. Purification and activation of the precursor and enzymic properties J. Biol. Chem., 1992, 267 21712-21719, in combination with others: 1) Yasunori Okada, Tatsuhisa Morodomi, Jan J, Enghild, ko Suzuki, Atsushi Yasui, Isao Nakanishi, Guy Salvesen and Hideaki Nagase: Matrix metalloproteinase 2 from human rheumatoid synovial fibroblasts. Purification and activation of the precursor and enzymic properties. Eur. J. Biochem. 1990, 194 721-730; 2) Robin V Ward, Rosalind M Hembry; John J Reynolds and Gillian Murphy: The purification of tissue inhibitor of metalloproteinase-2 from its 72 kDa progelatinase complex. Biochem. J. 1991 278 179-187. In detail, human fibrosarcoma ATCC HT1080 cell line was cultured to confluent in Dulbecco's Modified Medium (DMEM) containing 10% fetal-calf serum at 37° C. for 48 hours. Subsequently, the medium of confluent culture was changed to serum-free DMEM medium. To obtain MMP-9, Phorbol-12-myristate-13-acetate (TPA) must be added to this serum-free DMEM medium at a concentration of 50 ng/ml. The TPA treated medium was centrifuged at 3000 rpm for 15 min and the supernatant was concentrated to 450 ml by a Toyo-Roshi UP-20 apparatus with an ultrafiltration membrane. Then, proMMP-9 in this concentrated solution was purified by using columns of Gelatin-Sepharose and Concanavalin A-Sepharose. The pool containing proMMP-9 was dialyzed, concentrated (Toyo-Roshi UP-20) and applied to columns of Sephacryl S-200 and Green A matrix for the separation from TIMPs. The obtained proMMP-9 fraction was activated by TPCK-Trypsin (Final conc. 3 μg/50 μl React Mix.).
(§1) The enzymatic activity on MMPs was analyzed by the method described in “C. Graham Knight, Frances Willenbrock and Gillian Murphy: A novel coumarin-labelled peptide for sensitive continuous assays of the matrix metalloproteinases: FEBS LETT., 296, (1992), 263-266”. The substrate: MOCAc-Pro-Leu-Gly-Leu-A2Pr(DNP)-Ala-Arg-NH2 was purchased from Peptide Institute, Inc., Osaka, Japan. The measurement of the inhibitory activities (IC50) was carried out by the following four methods; • (A) Reaction with substrate, enzyme (MMPs) and inhibitor • (B) Reaction with substrate and inhibitor, without enzyme • (C) Reaction with substrate and enzyme (MMPs), without inhibitor • (D) Reaction with substrate only IC50 values were calculated by using the following formula and each fluorescence values of above four methods (A to D).
(§2) The value of inhibitory activity against MMP-2, MMP-8, MMP-9, MMP-12, and MMP-13 measured by above mentioned methods are shown in Table 36, 37, 38, 39, and 40 respectively.

The next series addresses T2, MMP-12 (Homo sapiens, UniProt P39900).
T2 construct: In regard to MMP-12, catalytic domain(^100Phe˜^263Gly) was amplified with RT-PCR; His-tag; enterokinase digestion-site; made in house
In words: Assay for inhibitory activities on MMPs (fluorogenic MOCAc peptide substrate): MMP-12. It is filed as biochemical. Particulars: catalytic domain 100Phe-263Gly. The protocol:
(§3) In regard to MMP-12, catalytic domain(^100Phe˜^263Gly) was amplified with RT-PCR from Human Placenta Total RNA. This was cloned in Escherichia. coli expression vector pTrc99AHE inserted with His-tag sequence and enterokinase digestion-site, induced and expressed by IPTG (Isopropyl-β-D-thiogalactopyranoside) and expressed in a insoluble fraction. Isolation of MMP-12 from an insoluble fraction was carried out by dissolving in modifier (6M urea) by a usual method and purification with metal chelate chromatography (Ni Chelateing Sepharose). And then removing modifier (6M urea) with dialysis and refolding of the enzyme spontaneously gave activated MMP-12.
as §1, §2

Another series addresses T3, MMP-8 (Homo sapiens, UniProt P22894).
T3 construct: In regard to MMP-8, catalytic domain (^99Phe˜^262Gly) was amplified with PCR; His-tag; enterokinase digestion-site; made in house
The series is described as follows: Assay for inhibitory activities on MMPs (fluorogenic MOCAc peptide substrate): MMP-8. It is filed as biochemical. The settings on record: catalytic domain 99Phe-262Gly.
Source text: In regard to MMP-8, catalytic domain (^99Phe˜^262Gly) was amplified with PCR using commercial available Human Bone Marrow cDNA. This was cloned in Escherichia. coli expression vector pTrc99AHE inserted with His-tag sequence and enterokinase digestion-site, induced and expressed by IPTG (Isdpropyl-β-D-thiogalactopyranoside) and expressed in a insoluble fraction (Thau F. Ho, M. Walid Qoronfleh, Robert C. Wahl, Trica A. Pulvino, Karen J. Vavra, Joe Falvo, Tracey M. Banks, Patricia G. Brake and Richard B. Ciccarelli: Gene expression, purification and characterization of recombinant human neutrophil collagenase. Gene 146, (1994) 297-301, Prepared by the a improved method of this material). Isolation of MMP-8 from an insoluble fraction was carried out by dissolving in modifier (6M urea) by a usual method and purification with metal chelate chromatography. And then removing modifier (6M urea) with dialysis and refolding of the enzyme spontaneously gave activated MMP-8.
as §1, §2

The target of a further series is T4, MMP-2 (Homo sapiens, UniProt P08253).
T4 construct: purchased Calbiochem-Novabiochem International, Inc
T4 sequence (P08253 110-660): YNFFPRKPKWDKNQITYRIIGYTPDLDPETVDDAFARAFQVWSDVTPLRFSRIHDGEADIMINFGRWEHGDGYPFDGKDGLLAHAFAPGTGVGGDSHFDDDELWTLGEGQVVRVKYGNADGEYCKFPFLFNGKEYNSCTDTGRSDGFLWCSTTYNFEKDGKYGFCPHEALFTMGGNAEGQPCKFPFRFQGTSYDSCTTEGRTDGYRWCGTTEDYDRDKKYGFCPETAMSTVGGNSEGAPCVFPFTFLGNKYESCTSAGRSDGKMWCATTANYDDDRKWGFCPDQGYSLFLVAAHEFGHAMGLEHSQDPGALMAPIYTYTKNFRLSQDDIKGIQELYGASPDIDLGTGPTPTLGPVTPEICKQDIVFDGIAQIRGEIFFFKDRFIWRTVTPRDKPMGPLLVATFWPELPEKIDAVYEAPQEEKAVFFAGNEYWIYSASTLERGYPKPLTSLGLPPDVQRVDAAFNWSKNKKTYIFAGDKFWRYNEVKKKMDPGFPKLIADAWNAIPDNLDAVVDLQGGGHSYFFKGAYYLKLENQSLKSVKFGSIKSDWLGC
In words: Assay for inhibitory activities on MMPs (fluorogenic MOCAc peptide substrate): MMP-2. It is filed as biochemical. Particulars: MMP-2 purchased from Calbiochem-Novabiochem. The protocol:
MMP-2 was purchased from Calbiochem-Novabiochem International, Inc.
as §1, §2

In a further series the target is T5, MMP-13 (Homo sapiens, UniProt P45452).
T5 construct: catalytic domain (^104Tyr˜^267Gly) was amplified with RT-PCR; His-tag; enterokinase digestion-site; made in house
The series is described as follows: Assay for inhibitory activities on MMPs (fluorogenic MOCAc peptide substrate): MMP-13. The class given is biochemical. The settings on record: Table 40. How it is done: as §3, with “MMP-13, mRNA was prepared from carcinoma cell SW1353 derived from human cartilage stimulate by IL-1, TNF and” for “MMP-12,”, “domain (^104Tyr˜^267Gly)” for “domain(^100Phe˜^263Gly)”, “RT-PCR.” for “RT-PCR from Human Placenta Total RNA.”, “MMP-13” for “MMP-12”, “dialyze” for “dialysis”, “MMP-13.” for “MMP-12.”
as §1, §2

T1 sequence (P14780 107-707 limits assumed): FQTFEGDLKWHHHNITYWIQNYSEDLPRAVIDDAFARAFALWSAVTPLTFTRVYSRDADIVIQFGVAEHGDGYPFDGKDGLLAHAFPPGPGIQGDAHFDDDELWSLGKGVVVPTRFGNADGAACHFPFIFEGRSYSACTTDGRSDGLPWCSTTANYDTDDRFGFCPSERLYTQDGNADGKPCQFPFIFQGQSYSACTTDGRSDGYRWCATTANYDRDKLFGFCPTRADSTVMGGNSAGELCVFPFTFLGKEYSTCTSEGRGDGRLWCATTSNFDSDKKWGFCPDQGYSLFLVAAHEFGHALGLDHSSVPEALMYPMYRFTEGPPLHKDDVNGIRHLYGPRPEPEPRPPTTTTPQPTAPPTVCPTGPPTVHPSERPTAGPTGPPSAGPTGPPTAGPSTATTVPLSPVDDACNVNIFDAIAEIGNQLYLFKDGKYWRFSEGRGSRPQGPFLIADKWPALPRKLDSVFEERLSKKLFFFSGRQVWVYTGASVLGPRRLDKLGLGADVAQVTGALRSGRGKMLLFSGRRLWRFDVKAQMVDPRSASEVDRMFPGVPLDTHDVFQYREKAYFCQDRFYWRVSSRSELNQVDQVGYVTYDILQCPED
T3 sequence (P22894 99-262): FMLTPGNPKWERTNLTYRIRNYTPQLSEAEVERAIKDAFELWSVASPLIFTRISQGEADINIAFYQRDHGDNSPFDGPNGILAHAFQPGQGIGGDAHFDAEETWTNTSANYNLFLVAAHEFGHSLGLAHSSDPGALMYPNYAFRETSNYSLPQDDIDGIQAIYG
T2 sequence (P39900 100-263): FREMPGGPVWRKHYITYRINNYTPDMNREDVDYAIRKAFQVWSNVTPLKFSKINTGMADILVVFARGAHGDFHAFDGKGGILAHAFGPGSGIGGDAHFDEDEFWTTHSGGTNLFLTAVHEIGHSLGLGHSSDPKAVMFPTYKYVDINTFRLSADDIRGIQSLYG

A word on the IC50: it is the midpoint of a concentration-inhibition curve. For `CC(C)[C@@H](NS(=O)(=O)c1ccc(-c2cc(-c3ccc(Cl)c(F)c3)on2)cc1)C(=O)O` [Example C-36], the IC50 on MMP-9 came to 0.000741 µM; against MMP-12, 0.000245 µM.
Consider `Cc1ccc(-c2cc(-c3ccc(S(=O)(=O)N[C@@H](C(=O)O)C(C)C)cc3)on2)s1` [Example A-33], for which the IC50 on MMP-8 amounted to 0.00291 µM; against MMP-2, 0.0971 nM.
In the case of `Cc1ccc(-c2cc(-c3ccc(S(=O)(=O)N[C@@H](C(=O)O)C(C)C)cc3)no2)s1` [Example C-29], the IC50 on MMP-8 is 0.000567 µM; at MMP-9 it was 0.00034 µM; on MMP-2, 0.0449 nM; against MMP-12, 0.000368 µM; against MMP-13, 0.000701 µM.
Turning to `COc1ccc(-c2cc(-c3ccc(S(=O)(=O)N[C@@H](C(=O)O)C(C)C)cc3)no2)cc1F` [Example C-51], the IC50 against MMP-8 came to 0.00263 µM; against MMP-12, 0.000266 µM; on MMP-13 it was 0.000836 µM.
As for `CC(C)[C@@H](NS(=O)(=O)c1ccc(-c2cc(-c3ccc(Cl)s3)on2)cc1)C(=O)O` [Example C-33], the half-maximal inhibitory concentration (IC50) against MMP-8 was determined as 0.000781 µM; at MMP-9, 0.000467 µM; against MMP-12, 0.000535 µM.
On to `CC(C)c1ccc(-c2cc(-c3ccc(S(=O)(=O)N[C@@H](C(=O)O)C(C)C)cc3)no2)cc1` [Example C-15], for which the 50% inhibitory concentration (IC50) against MMP-2 came to 0.049 nM; at MMP-12, 0.00015 µM; against MMP-13, 0.000136 µM.
With `CC(C)[C@@H](NS(=O)(=O)c1ccc(-c2cc(-c3ccc(Br)cc3)on2)cc1)C(=O)O` [Example C-22], the IC50 came to 0.000706 µM at MMP-9 and 0.000275 µM against MMP-12.
`CC(C)[C@@H](NS(=O)(=O)c1ccc(-c2cc(-c3ccc(OC(F)(F)F)cc3)on2)cc1)C(=O)O` [Example C-25]: the 50% inhibitory concentration (IC50) was 0.00032 µM on MMP-9, 0.000196 µM against MMP-12 and 0.000223 µM at MMP-13.
As to `CCCc1ccc(-c2cc(-c3ccc(S(=O)(=O)N[C@@H](C(=O)O)C(C)C)cc3)no2)cc1` [Example C-14], the concentration for half-maximal inhibition (IC50) against MMP-2 stood at 0.0533 nM; at MMP-12, 0.000216 µM; against MMP-13 it was 0.00015 µM.
For `COc1ccc(-c2cc(-c3ccc(S(=O)(=O)N[C@@H](C(=O)O)C(C)C)cc3)no2)cc1` [Example C-18], the IC50 against MMP-8 was determined as 0.00419 µM; against MMP-12 it was 0.000384 µM; at MMP-13, 0.000853 µM.
In the case of `CC(C)[C@@H](NS(=O)(=O)c1ccc(-c2cc(-c3ccc(Cl)cc3)on2)cc1)C(=O)O` [Example C-20], the figures for the IC50 on MMP-9 and against MMP-12 were 0.00092 µM and 0.000366 µM, respectively.
Regarding `CC(C)[C@@H](NS(=O)(=O)c1ccc(-c2cc(-c3ccc(SC(F)(F)F)cc3)no2)cc1)C(=O)O` [Example A-32], the IC50 at MMP-9 was determined as 0.000609 µM; against MMP-12, 0.000463 µM; against MMP-13, 0.000193 µM.
As for `CCCCc1ccc(-c2cc(-c3ccc(S(=O)(=O)N[C@@H](C(=O)O)C(C)C)cc3)no2)cc1` [Example C-17], the half-maximal inhibitory concentration (IC50) at MMP-8 came to 0.00421 µM; at MMP-12, 0.000239 µM; against MMP-13 it was 0.000578 µM.
Consider `CC(C)[C@@H](NS(=O)(=O)c1ccc(-c2cc(-c3ccc(OC(F)(F)F)cc3)no2)cc1)C(=O)O` [Example A-18], for which the IC50 turned out to be 0.00052 µM on MMP-9, 0.0674 nM against MMP-2, 0.000376 µM at MMP-12 and 0.000263 µM at MMP-13.
In the case of `CSc1ccc(-c2cc(-c3ccc(S(=O)(=O)N[C@@H](C(=O)O)C(C)C)cc3)no2)cc1` [Example C-10], the IC50 came out at 0.0039 µM against MMP-8, 0.0619 nM at MMP-2, 0.000201 µM against MMP-12 and 0.000282 µM against MMP-13.
As to `Cc1ccc(-c2cc(-c3ccc(S(=O)(=O)N[C@H](Cc4ccccc4)C(=O)O)cc3)no2)s1` [Example C-124], the IC50 against MMP-8 is 0.00178 µM; at MMP-9, 0.000585 µM; against MMP-2 it was 0.0926 nM; against MMP-13, 0.000528 µM.
Consider `CSc1ccc(-c2cc(-c3ccc(S(=O)(=O)N[C@H](C)C(=O)O)cc3)no2)cc1` [Example C-4], for which the 50% inhibitory concentration (IC50) worked out at 0.0934 nM on MMP-2, 0.000377 µM against MMP-12 and 0.000404 µM against MMP-13.
Regarding `CCc1ccc(-c2cc(-c3ccc(S(=O)(=O)N[C@@H](C(=O)O)C(C)C)cc3)no2)cc1` [Example C-12], the IC50 came to 0.000532 µM on MMP-9, 0.0832 nM at MMP-2, 0.000316 µM against MMP-12 and 0.000266 µM against MMP-13.
As a reminder, the melting point is the temperature, or range, at which the solid turns liquid. In turn, `Cc1ccc(-c2cc(-c3ccc(S(=O)(=O)N[C@H](C)C(=O)O)cc3)no2)cc1` [Example C-1] had a melting point of 218 to 221 °C. On MMP-12, this compound showed a concentration for half-maximal inhibition (IC50) of 0.000707 µM.
In the case of `CC(C)c1ccc(-c2cc(-c3ccc(S(=O)(=O)N[C@@H](C(=O)O)C(C)C)cc3)on2)cc1` [Example A-16], the results for the half-maximal inhibitory concentration (IC50) against MMP-2, against MMP-12 and against MMP-13 were 0.0767 nM, 0.000687 µM and 0.000328 µM, respectively.
As to `CCC(C)[C@H](NS(=O)(=O)c1ccc(-c2cc(-c3ccc(SC)cc3)on2)cc1)C(=O)O` (stereo partly shown) [Example C-97], the IC50 on MMP-8 came out at 0.00421 µM; against MMP-12, 0.000239 µM; against MMP-13 it was 0.000578 µM.
